This note sets out measurements from patent publication US20070179060A1, “6-(Poly-substituted aryl)-4-aminopicolinates and their use as herbicides” (priority 2006, published 2007).

The subject of data set [1] is lambsquarter (Chenopodium album). The experiment in a line: Postemergence herbicidal activity. The format is in vivo. Particulars: Chenopodium album, post-emergence, 336 h, post-emergent, 140 g ai/ha, after 14 days; read-out: % Control CHEAL. The method in brief: (§1)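 Plants grown 7-21 days in greenhouse (about 15 h photoperiod, 23-29° C day, 22-28° C night) to first or second true leaf stage. Compounds in acetone/water/isopropanol/DMSO carrier with crop oil concentrate and Triton X-155 sprayed overhead at 187 L/ha; controls received solvent blank. Plants sub-irrigated afterwards; dose responses analysed by probit analysis.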

For data set [2], the system named is redroot pigweed (Amaranthus retroflexus). The experiment in a line: Postemergence herbicidal activity. Particulars: Amaranthus retroflexus, post-emergence, 336 h, post-emergent, 140 g ai/ha, after 14 days; read-out: % Control AMARE. The data set is classed as in vivo. The procedure, abridged: as §1
Data set [3] has as its system velvetleaf (Abutilon theophrasti). The experiment in a line: Postemergence herbicidal activity. Particulars: Abutilon theophrasti, post-emergence, 336 h, post-emergent, 140 g ai/ha, after 14 days; read-out: % Control ABUTH. The data set is classed as in vivo. The method in brief: as §1
Data set [4] relates to Cyperus difformis. The experiment in a line: Herbicidal activity in transplanted paddy rice. Conditions: Cyperus difformis, 504 h, paddy water application, after 3 weeks, read-out: % Control CYPDI; for pest or weed control at 35 g/ha: 35 g ai/ha. The format is in vivo. Here is the method:
(§2) Weed seeds or nutlets of the desired test plant species were planted in puddled soil (mud) prepared by mixing a non-sterilized mineral soil (28 percent silt, 18 percent clay, and 54 percent sand, with a pH of about 7.3 to 7.8 and an organic matter content of about 1.0 percent) and water at a ratio of 100 kg of soil to 19 L of water. The prepared mud was dispensed in 250 mL aliquots into 480 mL non-perforated plastic pots with a surface area of 91.6 square centimeters leaving a headspace of 3 centimeters in each pot. […] Seedlings at the second or third leaf stage of growth were transplanted into 650 mL of mud contained in 960 mL non-perforated plastic pots with a surface area of 91.6 square centimeters 4 days prior to herbicide application. The paddy was created by filling the 3 centimeter headspace of the pots with water. When required to ensure good germination and healthy plants, a fungicide treatment and/or other chemical or physical treatment was applied. The plants were grown for 4-14 days in a greenhouse with an approximate 14 hour photoperiod which was maintained at about 29° C. during the day and 26° C. during the night. Nutrients were added as Osmocote (17:6:10, N:P:K+minor nutrients) at 2 g per pot. Water was added on a regular basis to maintain the paddy flood, and supplemental lighting was provided with overhead metal halide 1000-Watt lamps as necessary. The plants were employed for testing when they reached the second or third true leaf stage. A weighed amount, determined by the highest rate to be tested, of each test compound was placed in a 120 mL glass vial and was dissolved in 20 mL of acetone to obtain concentrated stock solutions. […] Application rates of ½×, ¼×, ⅛× and 1/16× of the high rate were obtained by injecting an appropriate amount of the stock solution into the aqueous layer of the paddy. Control plants were treated in the same manner with the solvent blank. The treated plants and control plants were placed in a greenhouse as described above and water was added as needed to maintain a paddy flood.

Data set [5] deals with Echinochloa crus-galli. The experiment in a line: Herbicidal activity in transplanted paddy rice. The format is in vivo. Conditions: Echinochloa crus-galli, 504 h, paddy water application, after 3 weeks, read-out: % Control ECHCG; for pest or weed control at 35 g/ha: 35 g ai/ha. The method, then: as §2
The subject of data set [6] is Monochoria vaginalis. The experiment in a line: Herbicidal activity in transplanted paddy rice. The format is in vivo. Conditions: Pontederia vaginalis, 504 h, paddy water application, after 3 weeks, read-out: % Control MOOVA; for pest or weed control at 35 g/ha: 35 g ai/ha. The method, then:
as §2

Data set [7] concerns Scirpus juncoides. The experiment in a line: Herbicidal activity in transplanted paddy rice. The format is in vivo. Conditions: Schoenoplectiella juncoides, 504 h, paddy water application, after 3 weeks, read-out: % Control SCPJU; for pest or weed control at 35 g/ha: 35 g ai/ha. Here is the method:
as §2

Data set [8] relates to rice (Orysa sativa var. Japonica). The experiment in a line: Herbicidal activity in transplanted paddy rice. The format is in vivo. Conditions: Oryza sativa, 504 h, transplant rice (crop), paddy water application, after 3 weeks; for pest or weed control at 35 g/ha: 35 g ai/ha. Here is the method: as §2
In data set [9] the test system is Galium aparine. The experiment in a line: Postemergence herbicidal activity in cereal crops. The data set is classed as in vivo. Particulars: Galium aparine, post-emergence, 480 h, post-emergent, 17.5 g ai/ha, after 20-22 days; read-out: % Control GALAP. The procedure, abridged: (§3)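 Greenhouse plants at the second or third true leaf stage are sprayed postemergence by track sprayer delivering 187 L/ha. Spray solution is an acetone/water/isopropanol/DMSO mixture with crop oil concentrate and Triton X-77. Treated plants are kept at about 18 °C day/17 °C night under a ~14 h photoperiod with sub-irrigation; blank-sprayed plants serve as controls.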

Data set [10] concerns Lamium purpureum. The experiment in a line: Postemergence herbicidal activity in cereal crops. The format is in vivo. Particulars: Lamium purpureum, post-emergence, 480 h; post-emergent, 17.5 g ai/ha, after 20-22 days; read-out: % Control LAMPU. The method in brief: as §3
Data set [11] has as its system Papaver rhoeas. The experiment in a line: Postemergence herbicidal activity in cereal crops. The data set is classed as in vivo. Conditions: Papaver rhoeas, post-emergence, 480 h, post-emergent, 17.5 g ai/ha, after 20-22 days; read-out: % Control PAPRH. The method in brief: as §3
The test system of data set [12] is Veronica persica. The experiment in a line: Postemergence herbicidal activity in cereal crops. Particulars: Veronica persica, post-emergence, 480 h, post-emergent, 17.5 g ai/ha, after 20-22 days; read-out: % Control VERPE. The data set is classed as in vivo. The procedure, abridged:
as §3

For data set [13], the system named is barley (Hordeum vulare). The experiment in a line: Postemergence herbicidal activity in cereal crops. The format is in vivo. Conditions: Hordeum, post-emergence, 480 h; crop, post-emergent, 17.5 g ai/ha, after 20-22 days; read-out: % Control HORVS. The procedure, abridged: as §3
For data set [14], the system named is wheat (Triticum aestivum). The experiment in a line: Postemergence herbicidal activity in cereal crops. The data set is classed as in vivo. Conditions: Triticum aestivum, post-emergence, 480 h; crop, post-emergent, 17.5 g ai/ha, after 20-22 days; read-out: % Control TRZAS. The procedure, abridged: as §3

For the compound `CCN(CC)c1c(Cl)ccc(-c2cc(N)c(Cl)c(C(=O)OC)n2)c1F` [Compound 17, 4-Amino-3-chloro-6-[4-chloro-3-(diethylamino)-2-fluorophenyl]pyridine-2-carboxylic acid, methyl ester], the melting point (as a rule, the temperature of the solid-liquid transition) lay in the range of 120 to 121 °C. Moreover, the pest or weed control at 140 g/ha in [1] came to 100%. Also, in data set [2], the pest or weed control at 140 g/ha came out at 100%. Moreover, in data set [3], the pest or weed control at 140 g/ha stood at 100%. In data set [4], the pest or weed control at 35 g/ha was 100%. Also, in data set [5], the pest or weed control at 35 g/ha came out at 70%. The pest or weed control at 35 g/ha in [6] is 100%. Moreover, the pest or weed control at 35 g/ha in [7] stood at 90%. This compound came in with a pest or weed control at 35 g/ha in [8] of 0%. For the same compound, the pest or weed control at 17.5 g/ha in data set [9] came to 80%. The pest or weed control at 17.5 g/ha in data set [10] was found to be 100%. Further, in [11], the pest or weed control at 17.5 g/ha worked out at 100%. The pest or weed control at 17.5 g/ha in [12] was 99%. In data set [13], the pest or weed control at 17.5 g/ha turned out to be 0%. The plant injury at 17.5 g/ha in data set [14] stood at 0%.
`CNc1c(Cl)ccc(-c2cc(N)c(Cl)c(C(=O)OC)n2)c1F` [Compound 38, 4-Amino-3-chloro-6-[4-chloro-2-fluoro-3-(methylamino)phenyl]pyridine-2-carboxylic acid, methyl ester]: the melting point was 148 to 149 °C. Also, the pest or weed control at 140 g/ha in data set [1] is 100%. The pest or weed control at 140 g/ha in data set [2] was 100%. Also, the pest or weed control at 140 g/ha in data set [3] worked out at 100%. Further, the pest or weed control at 70 g/ha in data set [4] (70 g ai/ha) was 100%. In [5] (70 g ai/ha), the pest or weed control at 70 g/ha came out at 50%. Besides, the pest or weed control at 70 g/ha in data set [6] (70 g ai/ha) was found to be 100%. Moreover, in [7] (70 g ai/ha), the pest or weed control at 70 g/ha is 95%. The compound also showed a pest or weed control at 70 g/ha in data set [8] (70 g ai/ha) of 0%. In addition, the pest or weed control at 17.5 g/ha in data set [9] amounted to 85%. Moreover, the pest or weed control at 17.5 g/ha in [10] was found to be 95%. In data set [11], the pest or weed control at 17.5 g/ha came out at 100%. Moreover, in [12], the pest or weed control at 17.5 g/ha was determined as 99%. Also, the pest or weed control at 17.5 g/ha in [13] was found to be 0%. For the same compound, the plant injury at 17.5 g/ha in data set [14] amounted to 5%.
Turning to `COC(=O)c1nc(-c2ccc(Cl)c(C(C)F)c2F)cc(N)c1Cl` (stereo not drawn) [Compound 61, 4-Amino-3-chloro-6-[4-chloro-2-fluoro-3-(1-fluoroethyl)phenyl]pyridine-2-carboxylic acid, methyl ester], the pest or weed control at 140 g/ha in data set [1], in data set [2] and in data set [3] was 100% in each case. Further, the pest or weed control at 35 g/ha in [4] amounted to 100%; in [5], 80%; in [6] it was 100%; in [7], 100%; in data set [8] it was 0%. The pest or weed control at 17.5 g/ha in data set [9] is 85%; in [10], 99%; in data set [11], 90%; in [12], 75%; in [13] it was 0%. Also, in data set [14], the plant injury at 17.5 g/ha was found to be 10%.
As for `CCCCOC(=O)c1nc(-c2ccc(Br)c(OC)c2F)cc(N)c1Cl` [Compound 90, 4-Amino-3-chloro-6-(4-bromo-2-fluoro-3-methoxyphenyl)pyridine-2-carboxylic acid, butyl ester], the pest or weed control at 140 g/ha in data set [1] worked out at 100%; in data set [2], 85%; in data set [3], 100%. In addition, the pest or weed control at 17.5 g/ha in data set [4] (17.5 g ai/ha) was 100%; in data set [5] (17.5 g ai/ha), 30%; in [6] (17.5 g ai/ha), 100%; in [7] (17.5 g ai/ha), 90%; in data set [8] (17.5 g ai/ha), 0%; in [9], 99%. Further, the pest or weed control at 17.5 g/ha in data set [10] amounted to 100%; in [11] it was 95%; in data set [12], 25%; in data set [13], 10%. Moreover, in data set [14], the plant injury at 17.5 g/ha is 0%.
In the case of `CCCCOC(=O)c1nc(-c2ccc(Cl)c(C(C)F)c2F)cc(N)c1Cl` (stereo not drawn) [Compound 91, 4-Amino-3-chloro-6-[4-chloro-2-fluoro-3-(1-fluoroethyl)phenyl)pyridine-2-carboxylic acid, butyl ester], the pest or weed control at 140 g/ha was found to be 100% in data set [1], 100% in data set [2] and 95% in data set [3]. The pest or weed control at 35 g/ha in [4] was 100%; in data set [5], 99%; in data set [6], 100%; in data set [7], 99%; in data set [8] it was 0%. Also, the pest or weed control at 17.5 g/ha in [9] is 90%; in data set [10] it was 100%; in data set [11], 60%; in [12], 45%; in data set [13], 10%. Also, in data set [14], the plant injury at 17.5 g/ha is 20%.
